No end group written: not given here.
How the values were obtained:
PxsNPFR = experiment: cAMP-Glo assay: inhibition of forskolin-induced cAMP accumulation in PxsNPFR-expressing HEK293 cells; type: cell-based, Plutella xylostella
Experimental: Cells were treated with 10 μM forskolin and various concentrations of the indicated peptide for 15 min at 37 °C (n = 3). […] Data are represented as mean ± SEM. *P<0.05, **P< 0.01, ***P< 0.005, not shown P > 0.05. […] (A) Two-tailed unpaired Student’s t test; (B–H) one-way ANOVA and Tukey’s multiple comparison tests.
Measurement of cyclic AMP in the HEK293/PxsNPFR cell line was accomplished with the cAMP-Glo™ Assay (Promega) according to the manufacturer’s instructions. Cells were seeded into the 96-well tissue culture plate (Thermo) overnight to grow at a recommended cell density (2500-10,000 cells/well). For the assay, cells were washed three times with PBS and then stimulated with 10 μM forskolin (Beyotime, added with 500 μM IBMX, Sigma-Aldrich) alone or 10 μM forskolin (added with 500 μM IBMX) with the indicated concentrations of synthetic sNPF for 15 min at room temperature. To generate a cAMP standard curve, cAMP standards supplied with the kit were prepared in a separate 96-well. Chemiluminescent signals were measured for 1 s/well on a SpectraMax iD5 Multi-Mode Microplate Reader (Molecular Devices).

P. xylostella larvae [1] = experiment: Circulating haemolymph trehalose after injection of synthetic sNPF peptides, venom, CvBV or teratocyte content; type: in vivo, Plutella xylostella; conditions: words
Experimental: Microinjections were performed under a Stemi 2000C microscope (Zeiss) using glass capillary injection needles and an Eppendorf Femtojet (Eppendorf) with a microcontroller (Narishige). To confirm the function of bovine insulin on hosts, 1 μg bovine insulin (Sigma-Aldrich, I0305000) was injected into the middle 3rd instar P. xylostella larvae. To identify the effect of each parasitic factor on hosts, 0.05 FE CvBV or 0.05 VRE venom was injected into the abdomen of the middle 3rd instar P. xylostella larva (Wang et al, [2018]; Yu et al, [2007]). 1 TE teratocytes’ content was microinjected into the early 4th instar P. xylostella larvae. To confirm the function of each synthetic sNPF peptide, 0.005 ng, 0.05 ng, or 0.5 ng of each peptide was injected into the middle 3rd instar P. xylostella larvae in a volume of 0.1 μl/per larva once per day for 3 consecutive days.
For P. xylostella larvae, 1 μl of haemolymph from the moth was diluted 60-fold in cold PBS and subjected to trehalose determination. The fat body of P. xylostella larvae was homogenised in 200 μl of cold PBS. Half of the homogenate was centrifuged at 13,000 rpm for 15 min, and the supernatant was used for protein content determination by Bradford Reagent (Invitrogen). The rest was heated at 70 °C for 5 min followed by centrifuging at 13,000 rpm for 15 min, and the supernatant was used for glycogen determination.
Trehalose content determination was performed by the anthrone sulfate method. 15 μL of the sample was incubated with 15 μL of 1% H2SO4 at 90 °C for 10 min, then 15 μL of 30% KOH was added and incubated at 90 °C for 10 min. Finally, 300 μl of 0.2% anthrone (Sigma-Aldrich) solution in 96% H2SO4 was added and incubated at 90 °C for 10 min. All reactions were stopped by immersion in ice. To create a trehalose standard curve, 15 μl of trehalose standards (Sigma-Aldrich) were treated similarly as a sample. Finally, 100 μl of each sample was added to a 96-well plate. The absorbance of samples was then measured at 630 nm on a SpectraMax® iD5 Multi-Mode Microplate Reader (Molecular Devices), and the trehalose levels were calculated based on the standard curve and normalised by protein content or sample volume.

P. xylostella larvae [2] = experiment: Feeding time and feeding interval time; type: in vivo, Plutella xylostella; conditions: sPxsNPF-1-injected, middle 4th instar; words
Excerpt: Appendix Figure S4. PxsNPF is mainly expressed in the CNS and midgut-trachea of the host as an appetite-suppressing hormone
(A) Relative mRNA levels of PxsNPF in different tissues of non-parasitized and C. vestalis-parasitized host larvae at late 3rd instar (n = 3). (B) Left: schematic diagram of the general composition and cell types of the midgut. EC, enterocyte; ISC, intestinal stem cell; EB, enteroblast; EE, enteroendocrine cell; BM, basement membrane; VM, visceral muscle. Right: PxsNPF (red) is expressed in the tracheae of the midgut (white arrowheads). Nuclei were labelled by DAPI (blue). NP: non-parasitized hosts, P: parasitized hosts. Scale bars, 200 μm. (C) Immunostaining of PxsNPF prepropeptide (red) in the whole midgut of non-parasitized and parasitized P. xylostella larvae at late 3rd-instar. White dashed boxes indicate areas magnified in Fig.
5E. Nuclei were labelled by DAPI (blue). Scale bar: 500 μm. (D) Feeding time (left, n = 40 for grey, n = 23 for blue, n = 54 for red, n = 29 for purple) and interval time (right, n = 35 for grey, n = 13 for blue, n = 33 for red, n = 25 for purple) of non-parasitized, C. vestalis-parasitized, and sPxsNPF-1-injected and sCvsNPF-injected P. xylostella larvae at middle 4th-instar during feeding behaviour. Data are represented as […]
Two-tailed unpaired Student’s t-test, except for (D) (One-way ANOVA and Tukey’s multiple comparison tests). […]

[3] = test system: P. xylostella fat body and midgut transcriptome; experiment: RNA sequencing of fat body and midgut after injection of sPxsNPF-1 or sCvsNPF; type: in vivo, Plutella xylostella
Experimental: The fat body and midgut of the 4 M instar P. xylostella larvae were dissected under the microscope in PBS on ice. Total RNA was isolated using an RNA isolater Total RNA Extraction Reagent (Vazyme) according to the manufacturer’s instructions. The quality and the concentration of the isolated total RNA were estimated by electrophoresis and a NanoDrop 2000. The transcriptome sequencing was performed at Annoroad Gene Technology. cDNA libraries for transcriptome sequencing made from the total RNA were prepared using the NEBNext Ultra RNA Library Prep Kit for Illumina in conjunction with the NEBNext Poly (A) mRNA Magnetic Isolation Module. Libraries were validated and quantified before being pooled and sequenced on an Illumina HiSeq 2000 (Illumina) sequencer with a 150 bp paired-end protocol. The raw reads were filtered by removing adaptor sequences, empty reads and low-quality sequences (reads with unknown sequences ‘N’). Sequences were de novo assembled using Trinity on a Galaxy Portal, and both ends were sequenced. The fragments per kilobase of transcript per million mapped reads (FPKM) method was used to analyse the expression profiles of all unigenes in different samples. Read counts were input into DESeq2 to calculate differential gene expression and statistical significance. […]

SVRSPSRRLRF-NH2 [sPxsNPF-1, synthetic short neuropeptide F-1 of Plutella xylostella]
inhibition of forskolin-stimulated cAMP accumulation (PxsNPFR; HEK293/PxsNPFR, 10 μM forskolin + 500 μM IBMX, 15 min, various peptide concentrations, result in words): an inhibitory effect was not observed
G protein coupling of the peptide-PxsNPFR complex (PxsNPFR; conclusion from cAMP and Ca2+ assays, words): regulates Gq protein-mediated signalling
effect on haemolymph trehalose level, dose dependence (P. xylostella larvae [1]; 0.005, 0.05, 0.5 ng per larva): dependent on the concentration
effect on haemolymph trehalose level (P. xylostella larvae [1]; synthetic PxsNPFs, injected into 3M larvae, measured at 4M, high dosage 0.5 ng per larva, n = 4-6): increased the haemolymph trehalose level
feeding interval time (P. xylostella larvae [2]): longer
feeding time (P. xylostella larvae [2]): unaffected
DEGs common to sPxsNPF-1 and sCvsNPF sets ([3]; 157 transcripts in both sets): 3.6%
expression of genes involved in Gq activation (PLC, IP3) ([3]; RNA-seq after injection, words): significantly upregulated after sPxsNPF-1 injection

Source: paper PMC12992715, “Dual interference with host neuropeptide signaling allows parasitoid wasp to hijack host sugar metabolism” (The EMBO Journal, 2025)
